This is an account of results in BindingDB's records for doi:10.1016/0960-894X(95)00111-6 (1995).

The assay can be described thus: Tested for competitive inhibitory activity against beta-Glucosidase.

Molecules are shown by their SMILES.

The term Ki denotes a measure of affinity in units of concentration, obtained from inhibition or displacement. Regarding `CO[C@@H]1O[C@@H](CO)[C@@H](Oc2cccnc2S[C@H]2[C@H](O)[C@H](O)[C@H](OC)O[C@H]2CO)[C@H](O)[C@@H]1O`, the Ki is 5.5 mM. That is a millimolar value. With `COC1OC(CO)C(Sc2nc(CO)ccc2O)C(O)C1O` (stereo unspecified) [5-(3-Hydroxy-6-hydroxymethyl-pyridin-2-ylsulfanyl)-6-hydroxymethyl-2-methoxy-tetrahydro-pyran-3,4-diol] the figure was 4 mM; with `COC1OC(CO)C(Sc2nc(CN(C)C)ccc2O)C(O)C1O` (stereo unspecified) [5-(6-Dimethylaminomethyl-3-hydroxy-pyridin-2-ylsulfanyl)-6-hydroxymethyl-2-methoxy-tetrahydro-pyran-3,4-diol], 20 mM. With `COC1OC(CO)C(Sc2ccccn2)C(O)C1O` (stereo unspecified) [6-Hydroxymethyl-2-methoxy-5-(pyridin-2-ylsulfanyl)-tetrahydro-pyran-3,4-diol] the figure was 8 mM.

As to `COC1OC(CO)C(Sc2nc(C)ccc2O)C(O)C1O` (stereo unspecified) [6-Hydroxymethyl-5-(3-hydroxy-6-methyl-pyridin-2-ylsulfanyl)-2-methoxy-tetrahydro-pyran-3,4-diol], the Ki is 4.5 mM. This Ki lies about 1.8-fold lower than the previous one.

In the case of `COC1OC(CO)C(Sc2ncccc2O)C(O)C1O` (stereo unspecified) [6-Hydroxymethyl-5-(3-hydroxy-pyridin-2-ylsulfanyl)-2-methoxy-tetrahydro-pyran-3,4-diol], the affinity corresponds to a Ki of 0.8 mM.
